Measured values as given in patent US20080200467A1, “SOLUBLE EPOXIDE HYDROLASE INHIBITORS” (Arete Therapeutics, Inc., priority 2006, published 2008).

System: soluble epoxide hydrolase (sEH)
Experiment: Fluorescent Assay for Mouse and Human Soluble Epoxide Hydrolase (CMNPC substrate)
Assay type: biochemical
Conditions: Concentration 2000 nM

O=C(NCCc1ccc(C(=O)N2CCOCC2)cc1)C(O)CCC12CC3CC(CC(C3)C1)C2 (stereo not shown) [Compound 157, 4-Adamantan-1-yl-2-hydroxy-N-(4-(morpholine-4-carbonyl)phenethyl)butanamide]
% Inhibition: 81%
